# Assay results reported in the supplement of paper PMC10307832.
# Compound: C1CC(C2=C(C1)C3=C(N2)C=CC(=C3)Cl)C(=O)N [Selisistat] + N=C(N)NC(=N)NCCc1ccccc1 [Phenformin] (partner 250 µM)
# Experiment: relative viability (nuclei count vs DMSO), 5 days (fraction); higher = more cells survive
# Conditions: first compound 0.4 µM
# In short: (§1)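 Lung cancer cell lines, seeded in 1536-well plates, were treated the following day by pin tool with a single drug or with five library-drug doses (not always all listed) in √10 steps on top of a fixed anchor-drug dose. Cells were fixed and nuclei stained in one step after 5 days, and nuclei were counted. Relative viability is the nuclei count for treated wells divided by that for vehicle wells, reported as medians of duplicate plates.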
row,Cell Line,relative viability
1,LCLC-97TM1,0.426
2,NCI-H2009,0.509
3,A-427,0.261
4,NCI-H441,0.801
5,NCI-H661,0.27
6,NCI-H1734,0.442
7,NCI-H460,0.598
8,NCI-H2347,0.4
9,SK-LU-1,0.504
10,NCI-H1395,0.509
11,201T,0.449
12,NCI-H1915,0.377
13,HCC-827,0.448
14,LXF-289,0.503
15,NCI-H23,0.731
16,NCI-H647,0.561

row,Cell Line,relative viability
1,CAL-12T,0.586
2,NCI-H1651,0.381
3,EPLC-272H,0.302
4,NCI-H2228,0.301
5,NCI-H1792,0.301
6,NCI-H1355,0.488
7,NCI-H3122,0.406
8,NCI-H1437,0.354
9,NCI-H1755,0.645
10,NCI-H2023,0.413
11,HCC-15,0.515
12,NCI-H1793,0.398
13,PC-14,0.522
14,EKVX,0.221
15,LC-2-ad,0.625
16,NCI-H1944,0.209

# Same assay, conditions: first compound 1.265 µM
row,Cell Line,relative viability
1,HCC-78,0.815
2,NCI-H322M,0.837
3,LCLC-97TM1,0.409
4,NCI-H2009,0.483
5,A-427,0.383
6,NCI-H441,0.799
7,NCI-H661,0.263
8,NCI-H1734,0.377
9,NCI-H460,0.565
10,NCI-H2347,0.438
11,SK-LU-1,0.528
12,NCI-H1395,0.432
13,201T,0.436
14,NCI-H1915,0.356
15,HCC-827,0.399
16,LXF-289,0.517
17,NCI-H23,0.824

row,Cell Line,relative viability
1,NCI-H647,0.499
2,CAL-12T,0.565
3,NCI-H1651,0.293
4,EPLC-272H,0.322
5,NCI-H2228,0.271
6,NCI-H1792,0.357
7,NCI-H1355,0.486
8,NCI-H3122,0.367
9,NCI-H1437,0.317
10,NCI-H1755,0.615
11,NCI-H2023,0.398
12,HCC-15,0.524
13,NCI-H1793,0.366
14,PC-14,0.415
15,EKVX,0.243
16,NCI-H1944,0.201

# Same assay, conditions: first compound 4 µM
row,Cell Line,relative viability
1,HCC-78,0.54
2,NCI-H322M,0.656
3,NCI-H2009,0.366
4,A-427,0.266
5,NCI-H441,0.698
6,NCI-H661,0.282
7,NCI-H1734,0.324
8,NCI-H460,0.366
9,NCI-H2347,0.228
10,SK-LU-1,0.465
11,NCI-H1395,0.427
12,201T,0.432
13,NCI-H1915,0.368
14,HCC-827,0.428
15,LXF-289,0.475
16,NCI-H23,0.658
17,NCI-H647,0.43
18,CAL-12T,0.406
19,NCI-H1651,0.274
20,NCI-H2228,0.205
21,NCI-H1355,0.433
22,NCI-H3122,0.294
23,NCI-H1437,0.278
24,NCI-H1755,0.585
25,NCI-H2023,0.455
26,PC-14,0.314
27,EKVX,0.222
28,LC-2-ad,0.437

# Same assay, conditions: first compound 12.65 µM
row,Cell Line,relative viability
1,HCC-78,0.685
2,NCI-H322M,0.77
3,LCLC-97TM1,0.362
4,NCI-H2009,0.449
5,A-427,0.255
6,NCI-H441,0.779
7,NCI-H661,0.286
8,NCI-H1734,0.382
9,NCI-H460,0.495
10,NCI-H2347,0.382
11,SK-LU-1,0.542
12,NCI-H1395,0.42
13,201T,0.41
14,NCI-H1915,0.355
15,HCC-827,0.395
16,LXF-289,0.499
17,NCI-H23,0.773

row,Cell Line,relative viability
1,NCI-H647,0.324
2,CAL-12T,0.516
3,NCI-H1651,0.307
4,EPLC-272H,0.288
5,NCI-H2228,0.295
6,NCI-H1792,0.324
7,NCI-H1355,0.465
8,NCI-H3122,0.369
9,NCI-H1437,0.29
10,NCI-H1755,0.559
11,NCI-H2023,0.312
12,HCC-15,0.44
13,NCI-H1793,0.303
14,PC-14,0.488
15,EKVX,0.23
16,LC-2-ad,0.582
17,NCI-H1944,0.196

# Same assay, conditions: first compound 40 µM
row,Cell Line,relative viability
1,HCC-78,0.744
2,NCI-H322M,0.915
3,LCLC-97TM1,0.461
4,NCI-H2009,0.422
5,A-427,0.327
6,NCI-H441,0.8
7,NCI-H661,0.251
8,NCI-H1734,0.356
9,NCI-H460,0.571
10,NCI-H2347,0.276
11,SK-LU-1,0.625
12,NCI-H1395,0.42
13,201T,0.481
14,NCI-H1915,0.368
15,HCC-827,0.432
16,LXF-289,0.538
17,NCI-H23,0.786

row,Cell Line,relative viability
1,NCI-H647,0.678
2,CAL-12T,0.537
3,NCI-H1651,0.284
4,EPLC-272H,0.296
5,NCI-H2228,0.307
6,NCI-H1792,0.224
7,NCI-H1355,0.462
8,NCI-H3122,0.371
9,NCI-H1437,0.308
10,NCI-H1755,0.618
11,NCI-H2023,0.357
12,HCC-15,0.501
13,NCI-H1793,0.388
14,PC-14,0.643
15,EKVX,0.249
16,LC-2-ad,0.632
17,NCI-H1944,0.214

# Compound: c1ccc2c(CCNc3ccc(Nc4ccncc4)cc3)c[nH]c2c1 [Serdemetan] + N=C(N)NC(=N)NCCc1ccccc1 [Phenformin] (partner 250 µM)
# Experiment: as above
# Conditions: first compound 0.04 µM
# In short: as §1
row,Cell Line,relative viability
1,HCC-78,0.612
2,NCI-H322M,0.667
